Results reported in ChEMBL document CHEMBL3877337, “Crystal Structures of ERAP2 Complexed with Inhibitors Reveal Pharmacophore Requirements for Optimizing Inhibitor Potency” (ACS Med Chem Lett, 2017).

Target: Endoplasmic reticulum aminopeptidase 2 (Homo sapiens, UniProt Q6P179)
Assay: Inhibition of recombinant ERAP2 (unknown origin) expressed in baculovirus infected insect cells using L-arginine-7-amido-4-methylcoumarine as substrate by spectrofluorimetric assay

Chain of Endoplasmic reticulum aminopeptidase 2 (Q6P179 whole entry): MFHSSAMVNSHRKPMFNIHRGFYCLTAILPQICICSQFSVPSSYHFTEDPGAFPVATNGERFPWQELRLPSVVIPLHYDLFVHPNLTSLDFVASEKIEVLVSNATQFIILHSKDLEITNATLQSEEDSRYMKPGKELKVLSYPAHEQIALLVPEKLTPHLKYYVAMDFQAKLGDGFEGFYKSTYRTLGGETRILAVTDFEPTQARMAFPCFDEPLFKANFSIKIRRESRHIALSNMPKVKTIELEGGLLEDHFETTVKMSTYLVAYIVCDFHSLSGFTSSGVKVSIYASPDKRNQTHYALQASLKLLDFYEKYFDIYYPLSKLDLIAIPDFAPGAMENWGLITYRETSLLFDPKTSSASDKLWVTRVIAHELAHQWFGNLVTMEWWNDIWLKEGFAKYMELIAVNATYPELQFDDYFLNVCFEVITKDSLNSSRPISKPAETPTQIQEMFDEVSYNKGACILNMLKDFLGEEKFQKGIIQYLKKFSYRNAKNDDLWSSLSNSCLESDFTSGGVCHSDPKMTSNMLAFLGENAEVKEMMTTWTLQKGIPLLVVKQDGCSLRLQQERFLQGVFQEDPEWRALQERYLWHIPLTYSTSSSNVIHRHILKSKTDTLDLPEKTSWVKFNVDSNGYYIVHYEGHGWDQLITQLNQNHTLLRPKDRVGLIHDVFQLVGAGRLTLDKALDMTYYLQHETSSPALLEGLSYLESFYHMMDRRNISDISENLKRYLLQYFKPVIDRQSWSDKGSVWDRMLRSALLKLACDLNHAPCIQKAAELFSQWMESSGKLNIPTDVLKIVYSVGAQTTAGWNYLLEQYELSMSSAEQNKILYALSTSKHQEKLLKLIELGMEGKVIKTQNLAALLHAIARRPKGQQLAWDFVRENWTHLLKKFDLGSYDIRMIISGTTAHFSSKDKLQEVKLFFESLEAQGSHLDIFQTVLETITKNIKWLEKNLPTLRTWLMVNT

IC50: > 100 µM
Compound: O=C(NO)C(Cc1ccc(F)cc1)C(=O)NCc1ccccc1 (stereo unspecified)
